Data: BigSolDB 2.1

C=CC(=O)NC(C)(C)C
Conditions	solubility (mole fraction)
in DMAc, 293.15 K	0.0814
in DMAc, 298.15 K	0.0897
in DMAc, 303.15 K	0.0979
in DMAc, 308.15 K	0.11
in DMAc, 313.15 K	0.127
in DMAc, 318.15 K	0.146
in DMAc, 323.15 K	0.172
in DMAc, 328.15 K	0.203
in DMAc, 333.15 K	0.236
in DMAc, 338.15 K	0.274
in DMAc, 343.15 K	0.317
in DMAc, 348.15 K	0.364
in DMAc, 353.15 K	0.43
in DMF, 288.15 K	0.0207
in DMF, 293.15 K	0.0237
in DMF, 298.15 K	0.0283
in DMF, 303.15 K	0.0333
in DMF, 308.15 K	0.0403
in DMF, 313.15 K	0.0463
in DMF, 318.15 K	0.0529
in DMF, 323.15 K	0.0599
in DMF, 328.15 K	0.0709
in DMF, 333.15 K	0.0833
in DMF, 338.15 K	0.0987
in DMF, 343.15 K	0.117
in DMF, 348.15 K	0.138
in DMF, 353.15 K	0.166
in dichloromethane, 279.15 K	0.00541
in dichloromethane, 283.15 K	0.0065
in dichloromethane, 285.15 K	0.0072
in dichloromethane, 287.15 K	0.00798
in dichloromethane, 289.15 K	0.00889
in dichloromethane, 291.15 K	0.00962
in dichloromethane, 293.15 K	0.0106
in dichloromethane, 296.15 K	0.0117
in dichloromethane, 298.15 K	0.0128
in dichloromethane, 301.15 K	0.0142
in dichloromethane, 304.15 K	0.016
in ethanol, 284.95 K	0.00136
in ethanol, 287.95 K	0.00152
in ethanol, 291.15 K	0.0017
in ethanol, 294.15 K	0.0021
in ethanol, 297.15 K	0.0024
in ethanol, 300.15 K	0.00283
in ethanol, 304.15 K	0.00344
in ethanol, 307.15 K	0.00392
in ethanol, 310.15 K	0.00463
in ethanol, 313.15 K	0.00522
in ethanol, 316.15 K	0.00598
in ethanol, 319.15 K	0.00677
in ethanol, 324.15 K	0.00864
in ethanol, 330.15 K	0.0113
in ethanol, 335.15 K	0.0142
in ethyl acetate, 287.15 K	0.015
in ethyl acetate, 290.15 K	0.0155
in ethyl acetate, 293.15 K	0.0166
in ethyl acetate, 296.15 K	0.0178
in ethyl acetate, 299.15 K	0.0188
in ethyl acetate, 302.15 K	0.0204
in ethyl acetate, 305.15 K	0.0225
in ethyl acetate, 310.15 K	0.0256
in ethyl acetate, 315.15 K	0.0289
in ethyl acetate, 320.15 K	0.0327
in ethyl acetate, 325.15 K	0.0363
in ethyl acetate, 330.15 K	0.0406
in ethyl acetate, 335.15 K	0.045
in ethyl acetate, 340.15 K	0.0506
in formamide, 284.15 K	0.00078
in formamide, 288.15 K	0.000929
in formamide, 294.15 K	0.00117
in formamide, 305.15 K	0.00199
in formamide, 308.15 K	0.00229
in formamide, 312.15 K	0.00277
in formamide, 316.15 K	0.00348
in formamide, 320.15 K	0.0043
in formamide, 324.15 K	0.00512
in formamide, 329.15 K	0.00639
in formamide, 334.15 K	0.00776
in formamide, 340.15 K	0.00994
in formamide, 345.15 K	0.0122
in formamide, 350.15 K	0.015
in water, 294.15 K	0.000895
in water, 298.15 K	0.000994
in water, 303.15 K	0.00111
in water, 308.15 K	0.00122
in water, 313.15 K	0.00136
in water, 318.15 K	0.00153
in water, 323.15 K	0.00172
in water, 328.15 K	0.00192
in water, 333.15 K	0.00215
in water, 338.15 K	0.0024
in water, 343.15 K	0.00267
in water, 348.15 K	0.00297
in water, 353.15 K	0.00338
